Measured values reported in patent US10889581B2, “Cyclopropyl fused thiazine derivatives as beta-secretase inhibitors and methods of use” (AMGEN INC., priority 2016, dated 2021).

Tests used:
Aβ peptide [1] = conditions: oral dose of 95 mg once daily; cited from earlier work
[2] = tested on: pigment epithelium of the rat's eye; conditions: higher compound dose given for three months; cited from earlier work
Aβ peptide [3] = conditions: nonhuman primates; cited from earlier work
[4] = cited from earlier work
Aβ peptide [5] = conditions: sustained and dose-dependent; cited from earlier work
BACE1 [6] = target: T1, BACE1 (Homo sapiens (Human), UniProt P56817); experiment: In vitro enzymatic BACE1 FRET assay; format: biochemical; conditions: pH 4.5, read-out: BACE1 Enzyme IC50
Target sequence in this assay (P56817 46-501): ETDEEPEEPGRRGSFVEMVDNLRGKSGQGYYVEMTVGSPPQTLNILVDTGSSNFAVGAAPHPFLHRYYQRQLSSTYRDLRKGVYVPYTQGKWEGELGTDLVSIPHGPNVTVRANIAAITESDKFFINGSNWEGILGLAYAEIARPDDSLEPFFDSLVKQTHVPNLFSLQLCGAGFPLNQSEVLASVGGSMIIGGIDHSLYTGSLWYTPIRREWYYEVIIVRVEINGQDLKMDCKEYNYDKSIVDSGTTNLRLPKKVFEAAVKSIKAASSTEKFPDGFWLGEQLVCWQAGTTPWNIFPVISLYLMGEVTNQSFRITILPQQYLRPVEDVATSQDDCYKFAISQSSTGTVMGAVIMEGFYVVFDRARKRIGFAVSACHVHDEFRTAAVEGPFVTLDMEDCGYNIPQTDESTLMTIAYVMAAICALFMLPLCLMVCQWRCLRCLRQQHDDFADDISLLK

BACE1 [7] = target: T1, BACE1; experiment: In vitro BACE1 cell-based assay (Aβ40 in conditioned medium of cells stably expressing APP, HTRF)
Description: In Vitro BACE1 Cell-Based Assay
The cell-based assay measures inhibition or reduction of Aβ40 in conditioned medium of test compound treated cells expressing amyloid precursor protein. Cells stably expressing Amyloid Precursor Protein (APP) were plated at a density of 45K cells/well in 384 well plates (Corning/BioCoat 354663). The test compounds were then added to cells in 22-point dose response concentrations with the starting concentration being 62.5 μM. The compounds were diluted from stock solutions in DMSO and the final DMSO concentration of the test compounds on cells was 0.625%. The cells were cultivated overnight at 37° C. and 5% CO2 in DMEM supplemented with 10% FBS. After 24 h of incubation with the test compounds, the conditioned media was collected and the Aβ40 levels were determined using HTRF (Homogeneous Time Resolved Fluorescence). The IC50 of the compound was calculated from the percent of control or percent inhibition of Aβ40 as a function of the concentration of the test compound.
The HTRF to detect Aβ40 was performed in 384 well plates (Costar 3658). The antibody pair that were used to detect Aβ40 from cell supernatants were ConfAb40 antibody (Amgen in-house) and biotinylated 6E10 (BIOLEGEND). As an alternative to ConfAb40, a commercially available antibody, Anti-beta Amyloid 1-40 antibody [BDI350] from Abcam, Cambridge, Mass. 02139-1517 (Product code: ab20068), may be used in this assay. The concentrations were 0.35 μg/mL of ConfAb40 antibody and 1.33 μg/mL of 6E10-biotinylated antibody, as well as 4.5 μg/mL of Streptavidin Allophycocyanin Conjugate (ThermoFisher Scientific) in HTRF Buffer ([…], 1% BSA, 0.5% Tween 20).
The conditioned media was incubated with above antibodies and Streptavidin Allophycocyanin Conjugate for 30-60 minutes at 23° C. The final readout was performed on Envision from PerkinElmer.
Target sequence in this assay (P56817 46-501, species assumed): as the sequence (P56817 46-501) above

human recombinant BACE2 = human recombinant BACE2 (Homo sapiens (Human), UniProt Q9Y5Z0); experiment: In vitro enzymatic BACE2 FRET assay; format: biochemical; conditions: pH 4.5, read-out: BACE2 Enzyme IC50
Sequence of human recombinant BACE2 (Q9Y5Z0 63-518): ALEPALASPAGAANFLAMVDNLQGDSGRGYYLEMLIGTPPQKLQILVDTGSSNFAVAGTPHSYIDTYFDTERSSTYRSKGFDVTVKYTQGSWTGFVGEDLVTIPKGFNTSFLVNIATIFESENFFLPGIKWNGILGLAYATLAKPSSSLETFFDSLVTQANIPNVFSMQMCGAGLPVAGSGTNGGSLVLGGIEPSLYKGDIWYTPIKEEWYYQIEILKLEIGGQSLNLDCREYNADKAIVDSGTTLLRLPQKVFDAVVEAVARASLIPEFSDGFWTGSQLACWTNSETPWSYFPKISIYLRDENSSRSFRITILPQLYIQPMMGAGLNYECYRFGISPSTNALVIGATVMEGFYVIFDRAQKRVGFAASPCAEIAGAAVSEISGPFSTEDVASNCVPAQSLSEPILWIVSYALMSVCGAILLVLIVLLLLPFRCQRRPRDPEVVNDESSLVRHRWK

Recombinant CatD = Recombinant CatD (Homo sapiens (Human), UniProt P07339); experiment: In vitro enzymatic Cathepsin D (CatD) FRET assay; format: biochemical; conditions: pH 3.5, read-out: Cat D Enzyme IC50
Sequence of Recombinant CatD (P07339 65-412): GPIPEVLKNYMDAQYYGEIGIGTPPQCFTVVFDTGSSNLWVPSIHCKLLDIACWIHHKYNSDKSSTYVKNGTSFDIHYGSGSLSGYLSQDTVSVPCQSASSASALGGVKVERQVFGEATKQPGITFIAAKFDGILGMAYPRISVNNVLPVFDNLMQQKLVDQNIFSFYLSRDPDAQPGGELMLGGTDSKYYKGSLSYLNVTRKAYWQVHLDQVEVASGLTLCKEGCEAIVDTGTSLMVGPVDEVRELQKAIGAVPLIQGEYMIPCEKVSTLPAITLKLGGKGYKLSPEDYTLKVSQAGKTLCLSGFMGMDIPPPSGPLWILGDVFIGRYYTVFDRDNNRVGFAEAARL

[8] = Aβ40, 24 h incubation, read-out: BACE1 Cell IC50

IC50 (BACE1 [6]) [nM]	IC50 (human recombinant BACE2) [nM]	IC50 (Recombinant CatD) [nM]	Compound	further results
–	–	–	C[C@@]1(c2cc(NC(=O)c3ccc(C#N)cn3)ccc2F)C=CSC(N)=N1 [JNJ-54861911]	Aβ peptide reduction in CSF (Aβ peptide [1]): up to 95%
–	–	–	C[C@@]1(c2cc(-c3cncnc3)c(F)cc2F)CCSC(N)=N1 [LY 2811376]	eye toxicity finding [2]: damaged the pigment epithelium of the rat's eye
–	–	–	C[C@H]1OC[C@]2(c3cc(NC(=O)c4cnc(C(F)F)cn4)ccc3F)N=C(N)SC[C@H]12 [Example E2609]	reduction in Aβ peptide levels in the CSF and plasma (Aβ peptide [3]): significant reduction; clinical safety concerns ([4]; repeated doses up to 200 mg, phase I clinical trial): did not show clinical significant safety concerns
–	–	–	CN1C(=N)N[C@](C)(c2cc(NC(=O)c3ccc(F)cn3)ccc2F)CS1(=O)=O [MK-8931]	CSF Aβ peptide concentrations (Aβ peptide [5]): significantly reduced; safety profile ([4]; phase I clinical trials): excellent safety profile with no immediately noticeable side effects
5	166	172000	Cc1cc(C#N)cnc1C#Cc1ccc(F)c([C@@]2(CF)N=C(N)S[C@@]3(/C=C/C(=O)N4CCOCC4)C[C@H]32)c1 [Example 116, 6-((3-((1R,5S,6S)-3-amino-5-(fluoromethyl)-1-((E)-3-morpholino-3-oxoprop-1-en-1-yl)-2-thia-4-azabicyclo[4.1.0]hept-3-en-5-yl)-4-fluorophenyl)ethynyl)-5-methylnicotinonitrile]	IC50 (BACE1 [7]; [8]): 18 nM
6	17	26200	Cc1cc(C#Cc2ccc(F)c([C@@]3(CF)N=C(N)S[C@@]4(/C=C/C(=O)N5CCOCC5)C[C@H]43)c2)sn1 [Example 118, (E)-3-((1R,5S,6S)-3-amino-5-(2-fluoro-5-((3-methylisothiazol-5-yl)ethynyl)phenyl)-5-(fluoromethyl)-2-thia-4-azabicyclo[4.1.0]hept-3-en-1-yl)-1-morpholinoprop-2-en-1-one]	IC50 (BACE1 [7]; [8]): 23 nM

Compound	IC50 (BACE1 [6]) [nM]	IC50 (human recombinant BACE2) [nM]	IC50 (Recombinant CatD) [nM]	further results
Cc1cc(C#N)cnc1C#Cc1ccc(F)c([C@@]2(C)N=C(N)S[C@@]3(C(=O)N4CCCC4)C[C@H]32)c1 [Example 128, 6-((3-((1S,5S,6S)-3-amino-5-methyl-1-(pyrrolidine-1-carbonyl)-2-thia-4-azabicyclo[4.1.0]hept-3-en-5-yl)-4-fluorophenyl)ethynyl)-5-methylnicotinonitrile]	2	423	508000	IC50 (BACE1 [7]): 2 nM
